Experimental data as given in PMC8602401 (Scientific Reports, 2021).
*1 amine or outer side, *2 acyl side, *3 side chain or, on linkers, in order; H or OH if unused. Where a SMILES comes first, the peptide text is derived from it. Side-chain parts run from the residue outwards. [ ]: non-standard residue; d: D form. The star is where a group is joined. γGlu = O=C(O)[C@H](CCC(=O)[*:2])N[*:1]; αMeF = C[C@](N)(Cc1ccccc1)C(=O)O; αMeK = C[C@](N)(CCCCN)C(=O)O; Lauroyl = CCCCCCCCCCCC(=O)*; αMeS = C[C@](N)(CO)C(=O)O; AEEA = NCCOCCOCC(=O)O; Aib = CC(C)(N)C(=O)O

What was measured:
Format in all cases: in vivo
[1] = system: diet-induced obese (DIO) mouse model; experiment: Body weight, blood glucose and plasma insulin in diet-induced obese mouse model; conditions: DIO mice
Protocol: Male 20-week-old C57Bl/6 J mice were single-housed for approximately 14 weeks with ad libitum access to water and 60% high-fat diet (D12492, Research Diets). Mice were randomized into groups of 12 mice per group on baseline body weight, 6 h fasting glucose and 6 h fasting insulin. Over 21 days, mice received daily subcutaneous injections of 10 nmol/kg of test peptides or placebo (50 mM Tris–HCl, 150 mM mannitol, 0.02% polysorbate 80; pH 8.0). Body weight was measured daily and fasting glucose and insulin levels were measured on day 14 following a 6-h fast. Blood was collected via tail-snip and glucose was measured with an Ascensia Breeze 2 glucometer (Bayer, Mishawaka, IN, USA). Insulin was measured in plasma using a Meso Scale rat/insulin kit (Meso Scale Discovery, Rockville, MD, USA).

HFHF fed dogs = experiment: Dog model of obesity and insulin resistance (HFHF fed dogs), oral tablets; conditions: for plasma glucose excursions after oral glucose challenge: 10–40 min after glucose, P < 0.05, n = 7–11 per group
Protocol: For the single-dose study, dogs were randomized on baseline glucose levels to receive MEDI7219 1 mg or 10 mg or placebo tablets in the morning following an overnight fast (7–11 dogs per group). Ninety minutes after tablet administration, dogs received an oral glucose bolus (200 mg/mL at a 5 mL/kg volume calculated on body weight prior to HFHF feeding), and blood glucose (blood collected via peripheral vein) was measured with an AlphaTRAK glucometer system (Zoetis, Parsippany, NJ, USA) at –90, 0, 10, 20, 30, 40, 50, 60, 75, 90, 120, 180 and 240 min after glucose administration. Approximately 12 weeks later, dogs entered the multiple-dose study and received either MEDI7219 10 mg (n = 12) or placebo tablets (n = 6) once daily for 14 days. Dogs received two cups of HFHF canine diet per day, with feeding 3 h postdose during the 14-day study. Dogs had access to water ad libitum throughout the study. Food intake and body weight were monitored daily. On day 14, after overnight fasting, dogs received their final dose followed by an oral glucose and acetaminophen bolus 90 min after administration. Blood glucose was measured as described previously, and plasma acetaminophen levels were measured by LC/MS method at the same time points.

db/db mice = experiment: Dose-response study in diabetic db/db mouse model; conditions: once-daily subcutaneous for 28 days, n = 9 per group
Protocol: Male 7-week-old db/db mice (Charles River, Bristol, UK) were group-housed with ad libitum access to standard chow and water. Mice were randomized to groups of nine mice per group on baseline body weight, HbA1C and 4-h fasting glucose (assessed in tail bleed samples using a Cobas c-111 analyzer [Roche Diagnostics, Indianapolis, IN, USA] and Nova StatStrip Xpress glucometer [DSI, St. Paul, MN, USA]). Insulin was measured in plasma from tail bleeds using a Meso Scale kit. Over 28 days, mice received daily subcutaneous doses of test peptides or placebo (50 mM Tris–HCl, 150 mM mannitol, 0.02% polysorbate 80; pH 8.0).

[2] = 10 nmol/kg daily subcutaneous, day 14, n = 12 per group

Q: Which “Body weight change (%)” value ([1]; 10 nmol/kg daily subcutaneous over 21 days, n = 12 per group, Fig. 3b) does the source give for CCCCCCCCCCCC(=O)N[C@@H](CCC(=O)NCCOCCOCC(=O)NCCOCCOCC(=O)NCCCC[C@H](NC(=O)[C@H](C)NC(=O)[C@@H](NC(=O)[C@](C)(Cc1ccccc1)NC(=O)[C@H](CCC(=O)O)NC(=O)[C@](C)(CCCCN)NC(=O)[C@H](C)NC(=O)[C@H](C)NC(=O)[C@H](CCC(=O)O)NC(=O)CNC(=O)[C@H](CCC(=O)O)NC(=O)[C@H](CC(C)C)NC(=O)[C@H](CCCCNC(=O)COCCOCCNC(=O)COCCOCCNC(=O)CC[C@H](NC(=O)CCCCCCCCCCC)C(=O)O)NC(=O)[C@H](CO)NC(=O)[C@](C)(CO)NC(=O)[C@@H](NC(=O)[C@H](CC(=O)O)NC(=O)[C@H](CO)NC(=O)[C@@H](NC(=O)[C@](C)(Cc1ccccc1)NC(=O)[C@H](CO)NC(=O)CNC(=O)[C@H](CCC(=O)O)NC(=O)C(C)(C)NC(=O)[C@@H](N)Cc1c[nH]cn1)[C@@H](C)O)C(C)C)[C@@H](C)CC)C(=O)N[C@H](C(=O)N[C@H](C(=O)N[C@@H](CCC(=O)O)C(=O)NCC(=O)NCC(N)=O)C(C)C)C(C)C)C(=O)O [MEDI7219] (H-H[Aib]EGS[αMeF]TSDV[αMeS]SK([AEEA-AEEA-γGlu-Lauroyl])LEGEAA[αMeK]E[αMeF]IAK([AEEA-AEEA-γGlu-Lauroyl])VVEGG-NH2) here?
A: −17.0%

Q: What about the “body weight reduction after 21 days” value ([1]; 10 nmol/kg daily subcutaneous, 21 days, n = 12 per group) of the same molecule?
A: 17.0%

Q: What about the “6-h fasting blood glucose – day 14” value [1, 2] of the same molecule?
A: 133.0 mg/dL

Q: And the “6-h fasting plasma insulin – day 14” value [1, 2]?
A: 0.74 ng/mL

Q: And the “body weight change over 14 days” value (HFHF fed dogs; once-daily 10 mg oral tablets, 14 days, placebo + 0.71%, P < 0.05, n = 12)?
A: –4.86%

Q: What about the “glucose excursions in oral glucose tolerance test, day 14” value (HFHF fed dogs; once-daily 10 mg oral tablets, fasted, postdose day 14, versus placebo, P < 0.01) of the same molecule?
A: significant improvements in glucose excursions

Q: What about the “peak plasma acetaminophen concentration (gastric emptying), day 14” value (HFHF fed dogs; once-daily 10 mg oral tablets, oral acetaminophen with glucose bolus, versus placebo) of the same molecule?
A: significantly reduced at 20–40 min (P < 0.05) and delayed

Q: What about the “cumulative food intake over 14 days” value (HFHF fed dogs; once-daily 10 mg oral tablets, versus placebo, P < 0.05) of the same molecule?
A: significantly decreased cumulative food intake

Q: And the “plasma glucose excursions after oral glucose challenge” value (HFHF fed dogs; single dose 1 mg oral tablet, versus placebo)?
A: statistically significantly improved

Q: What about the “plasma glucose excursions after oral glucose challenge” value (HFHF fed dogs; single dose 10 mg oral tablet, versus placebo) of the same molecule?
A: statistically significantly improved

Q: And the HbA1C levels (db/db mice; P < 0.001 versus placebo for doses 1–30 nmol/kg)?
A: dose-dependently reduced HbA1C levels

Q: What about the “blood glucose levels over 28 days” value (db/db mice; significantly lower than placebo at 3–30 nmol/kg (P < 0.001)) of the same molecule?
A: dose-dependently reduced glucose levels
